In article PMC12118597 (Science Advances, 2025):
Where “and” joins values, the source holds several entries; their conditions need not be identical. Equal entries are not always repeated. Where two headings read alike, the source gives them in different places.

Experiments:
Microsomal stability = format: in vitro ADME, mouse; conditions: for Mouse microsome T1/2: 1 μM compound, 0.5 mg/ml microsome protein; for CLint (mouse): intrinsic clearance from t1/2
Description: The assay was carried out in 96-well plates at 37°C. Reaction mixtures (25 μl) contained a final concentration of 1 μM compound, liver microsome protein (0.5 mg/ml), and 1 mM NADPH (reduced form of nicotinamide adenine dinucleotide phosphate) and/or 1 mM uridine diphosphate glucuronic acid (with alamethicin) in 100 mM potassium phosphate (pH 7.4) with 3 mM MgCl2. After 0, 15, 30, and 60 min, 150 μl of quench solution (100% acetonitrile with 0.1% formic acid) with an internal standard was transferred to each well. Reactions containing the same components, except NADPH, were prepared as the negative control.
The extent of metabolism was calculated as the disappearance of compounds compared to the 0-min time incubation.

[1] = molecular target: T1, human macrodomain MacroD2 (Homo sapiens, UniProt A1Z1Q3); assay: HTRF peptide displacement assay, human MacroD2; format: binding
T1 construct: MacroD2_HTRF; HTRF assay; pET22b(+); His6, TEV, Avi; 2-425; made in house
T1 sequence (A1Z1Q3 with tags, fused parts or gaps): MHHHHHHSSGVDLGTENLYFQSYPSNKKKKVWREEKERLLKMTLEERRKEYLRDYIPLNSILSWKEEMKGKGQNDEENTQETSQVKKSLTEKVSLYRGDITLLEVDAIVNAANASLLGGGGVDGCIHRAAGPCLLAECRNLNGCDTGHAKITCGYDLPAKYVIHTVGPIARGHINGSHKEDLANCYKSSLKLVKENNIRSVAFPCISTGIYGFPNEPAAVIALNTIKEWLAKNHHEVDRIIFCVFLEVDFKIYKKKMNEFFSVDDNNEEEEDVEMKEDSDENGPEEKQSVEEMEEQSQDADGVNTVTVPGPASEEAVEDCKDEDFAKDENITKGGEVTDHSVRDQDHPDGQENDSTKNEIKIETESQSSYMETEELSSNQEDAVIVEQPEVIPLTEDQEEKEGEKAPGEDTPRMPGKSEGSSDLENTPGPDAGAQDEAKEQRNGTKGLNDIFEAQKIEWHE

Kinetic solubility = conditions: for Kinetic solubility (uM), mean: DMSO concentration 5%; for Mean solubility: phosphate-buffered saline pH 7.4, triplicate
Caco-2 cells = test system: Caco-2 cells
Description: Caco-2 cell plates were obtained commercially and were maintained for 21 days at 37°C with 5% CO2. Cells were washed with Hank’s balanced salt solution with 5 mM Hepes for 30 min before starting the experiment. Test compound solutions are prepared by diluting DMSO stock into Hank’s balanced salt solution buffer, resulting in a final DMSO concentration of 0.1%. Before the assay, cell monolayer integrity was verified by […] electrical resistance to ensure that wells have resistance above the acceptance cutoff (1 kilohm). Transport experiments were initiated by adding test compounds to the apical (75 μl) or basal (250 μl) side. Transport plates were incubated at 37°C in a humidified incubator with 5% CO2. Samples were taken from the donor and acceptor compartments after 1 hour and analyzed by liquid chromatography–tandem mass spectrometry (LC-MS/MS) using an AB Sciex API 4000 instrument coupled to a Shimadzu LC-20 AD LC Pump system. Samples were separated using a Waters Atlantis T3 dC18 reverse phase HPLC column (20 mm by 2.1 mm) at a flow rate of 0.5 ml/min. The mobile phase consisted of 0.1% formic acid in acetonitrile (solvent A) and 0.1% formic acid in water (solvent B).
Apparent permeability (Papp) values were calculated using the following equation Papp=(dQ/dt)/A/C0 where dQ/dt is the initial rate of compound transport across the cell monolayer, A is the surface area of the filter membrane, and C0 is the initial concentration of the test compound, calculated for each direction using a four-point calibration curve by LC-MS/MS.
The net flux ratio between the two directional transports was calculated by the following equation Ratio=PappB−A/PappA−B where PappB-A and PappA-B represent the apparent permeability of compounds from the basal-to-apical and apical-to-basal sides of the cellular monolayer, respectively. Recovery was calculated on the basis of the compound concentration at the end of the experiment compared to that at the beginning of the experiment, adjusted for volumes.

human macrodomain Targ1 = molecular target: T2, human macrodomain Targ1 (Homo sapiens, UniProt Q9Y530); assay: HTRF peptide displacement assay, human Targ1; format: binding
T2 construct: Targ1_HTRF; HTRF assay; pET22b(+); His6, TEV; 1-153; made in house
T2 sequence (Q9Y530 with tags, fused parts or gaps): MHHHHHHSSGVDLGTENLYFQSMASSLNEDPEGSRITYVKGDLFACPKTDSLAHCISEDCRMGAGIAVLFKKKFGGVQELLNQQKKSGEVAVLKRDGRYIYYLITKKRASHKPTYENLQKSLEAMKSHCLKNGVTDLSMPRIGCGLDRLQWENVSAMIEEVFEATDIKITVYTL

[2] = molecular target: T3, SARS-CoV-2 NSP3 macrodomain (Mac1) (Severe acute respiratory syndrome coronavirus 2, UniProt P0DTD1); format: binding; conditions: for 1-BDC: PanDDA background density correction factor; for Total number of conformations: ligand conformations modeled in the crystal structure; for 2*(1-BDC) (%): occupancy estimate from PanDDA; for Refined ligand occupancy (%): refined crystallographic occupancy
[3] = molecular target: T3, SARS-CoV-2 NSP3 macrodomain (Mac1); assay: biochemical; format: binding
[4] = Caco-2 permeability assay, compound concentration 5
[5] = crystal soak 10 mM, P43 crystal form
[6] = Mouse microsome stability assay
[7] = HTRF binding curve, SARS-CoV-2 Mac1
[8] = SARS CoV-2 macrodomain HTRF assay, dose-response
[9] = Caco-2, compound concentration 5

Compound	Mouse microsome T1/2 (Microsomal stability) [min]	CLint (mouse) (Microsomal stability) [µl/min/mg protein]	showed binding to the human macrodomain MacroD2 ([1]; result in words)	Kinetic solubility (uM), mean (Kinetic solubility) [µM]	Mean solubility (Kinetic solubility) [µM]	Recover Rate (%) (Caco-2 cells; [4])	showed binding to the human macrodomain Targ1 (human macrodomain Targ1; result in words)	Occupancy difference (refined_occupancy - 2*(1-BDC)) [2]	1-BDC [2]	PanDDA run, overall: Hit [2, 5]	PanDDA run, DMSO background map: 1-BDC ([2]; crystal soak 10 mM)	PanDDA run, DMSO background map: Hit ([2]; crystal soak 10 mM)	Total number of conformations [2]	2*(1-BDC) (%) [2] [%]	Refined ligand occupancy (%) [2] [%]	T1/2 (min), mean (Microsomal stability; [6]) [min]	Hill slope [3, 7]	Hill slope [3, 8]	Recover Rate (%) (Caco-2 cells; [9])	also measured
C[C@H]1CCCN(c2ncnc3[nH]ccc23)[C@H]1CO [AVI-3716]	31.2	44.4	none	523	523	104	none	–	–	–	–	–	–	–	–	–	–	–	–	–
CC(C)(O)[C@H]1CCCN1c1ncnc2[nH]ccc12 [AVI-607, 2-[(2R)-1-{7H-pyrrolo[2,3-d]pyrimidin-4-yl}pyrrolidin-2-yl]propan-2-ol]	–	73	none	518	518	93	none	5	0.44	TRUE	0.42 and 0.44	TRUE	1	88	93	19	1.5	1.5	–	PanDDA run, overall: Modeling comment ([2]; crystal soak 10 mM): High occupancy, use manual refinement; X-ray crystal structure ([2]; ligand-bound crystal structure obtained (TRUE)): TRUE; Binding site ([2]; site occupied in X-ray crystal structure): Adenosine; inhibition at 200 µM ([3]; SARS CoV-2 macrodomain HTRF assay, single dose concentration 200 μM, read-out: Average % competition): 100%; inhibition at 200 µM ([3]; compound at 200 μM, mean of three to four technical replicates, read-out: % competition at 200 μM (preliminary HTRF screen)): 100%
O=C(Nc1ccc(C(=O)N[C@H]2c3cccc(O)c3C[C@H]2C(=O)O)cc1)NC1CC1 [AVI-92, reference compound]	> 120	< 11.6	–	524	524	91	–	–	–	–	–	–	–	–	–	>120	–	–	–	CLint (mouse) (µl/min/mg protein), mean (Microsomal stability; [6]): <11.6 µl/min/mg protein; Papp, A-B (x10-6 cm/s), mean (Caco-2 cells; [4]): 0.04 x10-6 cm/s; Papp, B-A (x10-6 cm/s), mean (Caco-2 cells; [4]): 1.7 x10-6 cm/s; Ratio (B-A/A-B) (Caco-2 cells; [4]): 42.50; Caco-2 ratio B-A/A-B (Caco-2 cells; net flux ratio): 40.7
CC(c1ccccc1)C(CO)Nc1ncnc2[nH]ccc12 (centres unmarked) [AVI-3669]	–	166.4	none	529	529	–	none	0	0.14	TRUE	0.14	TRUE	1	28	28	8.3	1.2	1.2	93	X-ray crystal structure ([2]; TRUE = crystal structure with ligand obtained): TRUE; PanDDA run, overall: Modeled [2, 5]: TRUE; Binding site ([2]; site of ligand in X-ray crystal structure): Adenosine
Cc1c[nH]c2ncnc(NCC3(O)CCCCC3)c12 [AVI-3761, 1-(((5-methyl-7H-pyrrolo[2,3-d]pyrimidin-4-yl)amino)methyl)cyclohexan-1-ol]	–	185	–	–	–	–	–	–	–	–	–	–	–	–	–	7.49	–	–	86	showed binding to the human macrodomain MacroD2 [1]: none; showed binding to the human macrodomain Targ1 (human macrodomain Targ1): none
